Reference: PMC10044640, “Antimicrobial Peptides Designed against the Ω-Loop of Class A β-Lactamases to Potentiate the Efficacy of β-Lactam Antibiotics” (Antibiotics, 2023)
Read-outs that look alike come from different tables or passages of the source.

What was measured:
[1] = test system: CC1(C)S[C@@H]2[C@H](NC(=O)[C@H](N)c3ccc(O)cc3)C(=O)N2[C@H]1C(=O)O; experiment: Kinetics of β-lactam hydrolysis with or without peptides; format: biochemical, Escherichia coli; conditions: other: TEM-1 0.42 μM, no peptide, 25 °C, 10 mM Tris-HCl, 300 mM NaCl pH 7.5, 1 μg/mL BSA, substrate 20–500 μM
Experimental: (§1) The N-terminal 6X histidine-tagged proteins (SHV-14 and TEM-1) were expressed from the respective plasmid constructs already available in the laboratory and were purified by Ni-NTA affinity chromatography using an AKTA prime plus (GE Healthcare, Piscataway, NJ, USA) as described previously. Nitrocefin hydrolysis was used to validate the β-lactamase activity of both proteins.
(§2) Assessment of enzyme activities was carried out by calculating the kinetic parameters [Michaelis–Menten constants (Km and Vmax), turn-over number (kcat), and catalytic efficiency (kcat/Km)] with various β-lactam substrates in the presence of the peptides as described previously. The hydrolysis reaction was carried out at 25 °C in 10 mM Tris-HCl, 300 mM NaCl (pH 7.5) buffer supplemented with 1 μg mL^−1 bovine serum albumin for protein stability. The enzyme concentrations (0.46 μM: SHV-14 and 0.42 μM: TEM-1) were taken to determine the initial rate constants at varying substrate concentrations (20–500 μM). The values were calculated using the online curve-fitting tool (https://www.mycurvefit.com, MyAssays Ltd., Brighton, UK, accessed on 25 May 2022).

[2] = test system: CCN1CCN(C(=O)N[C@@H](C(=O)N[C@@H]2C(=O)N3[C@@H]2SC(C)(C)[C@@H]3C(=O)O)c2ccccc2)C(=O)C1=O; experiment: as above; format: biochemical, Escherichia coli; conditions: other: TEM-1 0.42 μM, no peptide, 25 °C, 10 mM Tris-HCl, 300 mM NaCl pH 7.5, 1 μg/mL BSA, substrate 20–500 μM
Experimental: as §1, §2

[3] = test system: M. smegmatis MC2 155; experiment: HT-SPOTi MIC of β-lactams with or without peptides; format: cell-based, Mycobacterium smegmatis; conditions: no peptide, triplicate
[4] = test system: E. coli CS109 + pBAD-TEM1; format: cell-based, Escherichia coli; conditions: CS109 + pBAD-TEM1, no peptide; broth microdilution, MHB, ~10^5 cells/well, OD600
[5] = test system: SHV-14; experiment: Kinetics of β-lactam hydrolysis with or without peptides; format: biochemical, Klebsiella pneumoniae; conditions: SHV-14 0.46 μM, no peptide, 25 °C; for Km: 10 mM Tris-HCl, 300 mM NaCl pH 7.5, 1 μg/mL BSA, substrate 20–500 μM, read-out: Km, β-lactam substrate alone; for kcat, β-lactam substrate alone: pH 7.5
Experimental: as §1, §2

[6] = test system: E. coli CS109 + pBAD-TEM1; format: cell-based, Escherichia coli; conditions: E. coli CS109 + pBAD-TEM1 (arabinose-induced), no peptide; HT-SPOTi
[7] = test system: K. pneumoniae; experiment: HT-SPOTi MIC of β-lactams with or without peptides; format: cell-based, Klebsiella pneumoniae; conditions: for MIC Value Antibiotics, β-lactam alone: K. pneumoniae, no peptide, triplicate
[8] = test system: E. coli CS109; experiment: HT-SPOTi MIC of β-lactams with or without peptides; format: cell-based, Escherichia coli; conditions: for MIC Value Antibiotics, β-lactam alone: E. coli CS109, no peptide, HT-SPOTi agar, ~10^3 CFU/well, triplicate
[9] = test system: E. coli CS109; experiment: Broth microdilution MIC; format: cell-based, Escherichia coli; conditions: E. coli CS109, no peptide; broth microdilution (CLSI), MHB, ~10^5 cells/well, OD600; triplicate
[10] = test system: E. coli CS109 + pBAD-SHV-14; format: cell-based, Escherichia coli; conditions: E. coli CS109 + pBAD-SHV-14 (arabinose-induced), no peptide; HT-SPOTi
[11] = test system: E. coli CS109 + pBAD-SHV-14; format: cell-based, Escherichia coli
[12] = test system: M. tuberculosis H37Rv; experiment: HT-SPOTi MIC of ampicillin with or without peptides; format: cell-based; conditions: Mycobacterium tuberculosis, MTB H37Rv, control row of Table S2, read-out: MIC value, control drug
[13] = molecular target: T1, TEM-1 (Escherichia coli, UniProt P62593); experiment: Kinetics of β-lactam hydrolysis with or without peptides; format: biochemical
T1 construct: The full-length constructs (blaSHV-14 and blaTEM-1) were cloned and expressed in pBAD18-Cam (Cam^R) vector; 6xHis (N); made in house; host or cells: E. coli BL21 (DE3) pLysS, pET28a(+)
T1 sequence (P62593 24-286 limits assumed): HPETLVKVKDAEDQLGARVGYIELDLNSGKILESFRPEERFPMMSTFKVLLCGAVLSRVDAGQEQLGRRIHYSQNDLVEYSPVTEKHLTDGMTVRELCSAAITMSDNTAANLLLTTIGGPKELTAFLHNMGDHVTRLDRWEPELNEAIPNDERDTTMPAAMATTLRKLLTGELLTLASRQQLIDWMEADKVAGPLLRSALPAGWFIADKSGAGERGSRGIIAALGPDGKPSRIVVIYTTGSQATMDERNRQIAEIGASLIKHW
Experimental: as §1, §2

[14] = test system: Gram-negative strains (E. coli CS109, K. pneumoniae); experiment: HT-SPOTi, cephalosporins with peptides; format: cell-based, Escherichia coli; Klebsiella pneumoniae; conditions: strain not given
Experimental: HT-SPOTi (high-throughput spot culture growth inhibition) assay was used to evaluate the whole cell phenotypic effect of peptides against a selection of Gram-negative and acid-fast bacterial strains in the presence of β-lactam antibiotics as previously described. The distribution of the molten agar media into the 96 wells was achieved using the Multidrop Combi microplate dispenser (Thermo-Fisher Scientific). Plates were left for 5 min for the agar to set, and a diluted inoculum of bacteria was applied (2 µL of ∼10^3 CFU) into each well by either the use of a multi-channel pipettor or by using the Multidrop Combi. DMSO was taken as no antibiotic control and kanamycin as non-β-lactam drug control. Unless otherwise specified, all the experiments were performed in triplicate.
To check the inhibitory activity of peptides and comprehend particular structure–activity relationships, HT-SPOTi assay was performed. The whole-cell phenotypic effect of the 10 pentapeptides was ascertained in combination with β-lactam antibiotics in E. coli CS109 and K. pneumoniae.

[15] = CS109 + pBAD-SHV-14, no peptide, broth microdilution, MHB, ~10^5 cells/well, OD600
[16] = TEM-1 0.42 μM, no peptide; 25 °C, pH 7.5

## TEM-1 (Escherichia coli)
[1]
  Km: 105.09 ± 12.16 µM
  kcat: 427 ± 21 s⁻¹
[2]
  Km: 136.32 ± 12.16 µM
  kcat: 331 ± 12.2 s⁻¹

## CC1(C)S[C@@H]2[C@H](NC(=O)[C@H](N)c3ccc(O)cc3)C(=O)N2[C@H]1C(=O)O [Amx, Amoxicillin]
[3]
  MIC Value Antibiotics, β-lactam alone: 2 µg/mL
[4]
  MIC Value of Antibiotics, β-lactam alone: 64 µg/mL
[5]
  Km: 112 ± 12.2 µM
  kcat, β-lactam substrate alone: 416.95 ± 5.02 s⁻¹
[6]
  MIC Value of Antibiotics, β-lactam alone: 32 µg/mL
[7]
  MIC Value Antibiotics, β-lactam alone: 64 µg/mL
[8]
  MIC Value Antibiotics, β-lactam alone: 8 µg/mL
[9]
  MIC Value of Antibiotics, β-lactam alone: 16 µg/mL

## NC[C@H]1O[C@H](O[C@H]2[C@H](O)[C@@H](O[C@H]3O[C@H](CO)[C@@H](O)[C@H](N)[C@H]3O)[C@H](N)C[C@@H]2N)[C@H](O)[C@@H](O)[C@@H]1O [Kanamycin]
[7]; Table 3b control row, one value printed under each column Pen, Amp, Amx, Pip
  MIC Value, non-β-lactam drug control: 64 µg/mL
[8]; Table 4 control row, construct not given, one value under each column Pen, Amp, Amx, Pip, HT-SPOTi
  MIC Value, non-β-lactam drug control: 64 µg/mL

## CCN1CCN(C(=O)N[C@@H](C(=O)N[C@@H]2C(=O)N3[C@@H]2SC(C)(C)[C@@H]3C(=O)O)c2ccccc2)C(=O)C1=O [Pip, Piperacillin]
[10]
  MIC Value of Antibiotics, β-lactam alone: 64 µg/mL
[3]
  MIC Value Antibiotics, β-lactam alone: >250 µg/mL
[4]
  MIC Value of Antibiotics, β-lactam alone: 125 µg/mL
[5]
  Km: 98.7 ± 12.2 µM
  kcat, β-lactam substrate alone: 432.09 ± 5.97 s⁻¹
[11]; [15]
  MIC Value of Antibiotics, β-lactam alone: 125 µg/mL
[6]
  MIC Value of Antibiotics, β-lactam alone: 64 µg/mL
[7]
  MIC Value Antibiotics, β-lactam alone: 64 µg/mL
[8]
  MIC Value Antibiotics, β-lactam alone: 16 µg/mL
[9]
  MIC Value of Antibiotics, β-lactam alone: 16 µg/mL

## NNC(=O)c1ccncc1 [Isoniazid]
[12]
  MIC: 2 µg/mL

## CC1(C)S[C@@H]2[C@H](NC(=O)[C@H](N)c3ccccc3)C(=O)N2[C@H]1C(=O)O [Amp, Ampicillin]
[10]
  MIC Value of Antibiotics, β-lactam alone: 32 µg/mL
[3]
  MIC Value Antibiotics, β-lactam alone: 4 µg/mL
[4]
  MIC Value of Antibiotics, β-lactam alone: 32 µg/mL
[5]
  Km: 187 ± 12.2 µM
  kcat, β-lactam substrate alone: 644.95 ± 10.97 s⁻¹
[11]; [15]
  MIC Value of Antibiotics, β-lactam alone: 64 µg/mL
[6]
  MIC Value of Antibiotics, β-lactam alone: 16 µg/mL
[13]; [16]
  kcat, β-lactam substrate alone: 290 ± 85.55 s⁻¹
[13]; read-out: Km, β-lactam substrate alone; TEM-1 0.42 μM, no peptide; 25 °C, 10 mM Tris-HCl, 300 mM NaCl pH 7.5, 1 μg/mL BSA; substrate 20–500 μM
  Km: 66 ± 12.2 µM
[7]
  MIC Value Antibiotics, β-lactam alone: 32 µg/mL
[8]
  MIC Value Antibiotics, β-lactam alone: 4 µg/mL
[9]
  MIC Value of Antibiotics, β-lactam alone: 8 µg/mL

## Penicillin
[10]
  MIC Value of Antibiotics, β-lactam alone: 250 µg/mL
[5]
  Km: 144 ± 4.43 µM
  kcat, β-lactam substrate alone: 586.95 ± 15.97 s⁻¹
[11]
  MIC Value of Antibiotics, β-lactam alone: 500 µg/mL
[6]
  MIC Value of Antibiotics, β-lactam alone: 64 µg/mL
[13]; TEM-1 0.42 μM, no peptide; 25 °C, 10 mM Tris-HCl, 300 mM NaCl pH 7.5, 1 μg/mL BSA; substrate 20–500 μM; read-out: Km, β-lactam substrate alone
  Km: 67.2 ± 4.43 µM
[13]; [16]
  kcat, β-lactam substrate alone: 386.95 ± 15.97 s⁻¹
[7]
  MIC Value Antibiotics, β-lactam alone: 32 µg/mL
[8]
  MIC Value Antibiotics, β-lactam alone: 32 µg/mL
[9]
  MIC Value of Antibiotics, β-lactam alone: 64 µg/mL

## N[C@@H](C(=O)N[C@@H]1C(=O)N2C(C(=O)O)=C(Cl)CS[C@H]12)c1ccccc1 [cefaclor]
[14]
  levels of resistance to the cephalosporin with peptides: remained unaltered

## CCN1CCN(C(=O)N[C@@H](C(=O)N[C@@H]2C(=O)N3C(C(=O)O)=C(CSc4nnnn4C)CS[C@H]23)c2ccc(O)cc2)C(=O)C1=O [cefoperazone]
[14]
  levels of resistance to the cephalosporin with peptides: remained unaltered

## CO/N=C(\C(=O)N[C@@H]1C(=O)N2C(C(=O)[O-])=C(C[N+]3(C)CCCC3)CS[C@H]12)c1csc(N)n1 [cefepime]
[14]
  levels of resistance to the cephalosporin with peptides: remained unaltered

## CC1=C(C(=O)O)N2C(=O)[C@@H](NC(=O)[C@H](N)c3ccc(O)cc3)[C@H]2SC1 [cefadroxil]
[14]
  levels of resistance to the cephalosporin with peptides: remained unaltered

## CC(C)(O/N=C(\C(=O)N[C@@H]1C(=O)N2C(C(=O)[O-])=C(C[n+]3ccccc3)CS[C@H]12)c1csc(N)n1)C(=O)O [ceftazidime]
[14]
  levels of resistance to the cephalosporin with peptides: remained unaltered
